Values after ≈ are worked out from the molar mass of the structure shown.
Experiments:
[1] = Artificial membrane permeability of the compound; format: ADME; settings: PAMPA; read-out: permeability
[2] = target: T1, Bromodomain-containing protein 4 (Homo sapiens, UniProt O60885); experiment: Inhibition of BRD4 BD2 (unknown origin) incubated for 30 mins in presence of fluorescent ligand by TR-FRET method
[3] = Solubility of the compound at pH 6.5 in fast state simulated intestinal fluid incubated for 16 hrs by HPLC analysis; format: physicochemical; settings: fasted state simulated intestinal fluid (FaSSIF)
[4] = target: T1, Bromodomain-containing protein 4; experiment: Inhibition of BRD4 BD1 (unknown origin) incubated for 30 mins in presence of fluorescent ligand by TR-FRET method
[5] = Intrinsic clearance in rat hepatocytes after 60 mins by LC-MS/MS analysis; format: ADME, cell-based, Hepatocyte; settings: 1 h
[6] = Intrinsic clearance in human hepatocytes measured after 120 mins by LC-MS/MS analysis; format: ADME, cell-based, Hepatocyte; settings: 2 h
[7] = Intrinsic clearance in dog hepatocytes incubated upto 45 mins by LC-MS/MS analysis; format: ADME, cell-based, Canis lupus familiaris, Hepatocyte; settings: 0.75 h
[8] = target: Voltage-gated inwardly rectifying potassium channel KCNH2 (Homo sapiens, UniProt Q12809); experiment: Inhibition of hERG; format: toxicity
Voltage-gated inwardly rectifying potassium channel KCNH2, sequence (Q12809 whole entry): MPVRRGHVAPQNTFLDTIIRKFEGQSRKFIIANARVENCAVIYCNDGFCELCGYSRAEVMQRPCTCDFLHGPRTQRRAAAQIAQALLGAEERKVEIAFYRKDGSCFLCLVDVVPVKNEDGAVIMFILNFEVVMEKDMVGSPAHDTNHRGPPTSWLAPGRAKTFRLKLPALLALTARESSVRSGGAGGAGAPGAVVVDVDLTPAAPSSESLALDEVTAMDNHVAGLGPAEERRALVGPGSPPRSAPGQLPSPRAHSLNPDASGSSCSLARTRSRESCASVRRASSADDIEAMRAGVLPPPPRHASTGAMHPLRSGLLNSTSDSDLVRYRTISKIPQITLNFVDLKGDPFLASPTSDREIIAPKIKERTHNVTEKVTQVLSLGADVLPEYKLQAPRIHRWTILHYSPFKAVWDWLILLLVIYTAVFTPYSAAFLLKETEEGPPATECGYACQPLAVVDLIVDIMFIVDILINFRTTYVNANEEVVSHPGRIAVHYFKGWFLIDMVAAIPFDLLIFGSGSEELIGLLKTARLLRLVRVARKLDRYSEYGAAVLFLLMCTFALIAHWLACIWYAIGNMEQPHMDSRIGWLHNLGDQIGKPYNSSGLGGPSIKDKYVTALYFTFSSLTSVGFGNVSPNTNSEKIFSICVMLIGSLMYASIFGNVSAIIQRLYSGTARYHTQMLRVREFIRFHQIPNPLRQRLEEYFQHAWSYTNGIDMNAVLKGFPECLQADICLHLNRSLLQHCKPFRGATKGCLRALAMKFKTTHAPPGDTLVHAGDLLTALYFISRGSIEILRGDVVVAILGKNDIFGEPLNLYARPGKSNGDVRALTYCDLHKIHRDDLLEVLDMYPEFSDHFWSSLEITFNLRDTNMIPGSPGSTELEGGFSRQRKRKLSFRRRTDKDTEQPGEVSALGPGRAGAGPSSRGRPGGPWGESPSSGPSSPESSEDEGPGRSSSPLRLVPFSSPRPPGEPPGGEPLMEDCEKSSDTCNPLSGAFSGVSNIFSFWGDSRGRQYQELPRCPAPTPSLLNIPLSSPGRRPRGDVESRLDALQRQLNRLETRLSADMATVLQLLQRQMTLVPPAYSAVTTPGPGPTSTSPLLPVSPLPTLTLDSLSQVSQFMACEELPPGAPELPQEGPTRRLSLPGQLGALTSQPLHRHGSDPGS

C-C motif chemokine 2 = C-C motif chemokine 2 (Homo sapiens, UniProt P13500); experiment: Inhibition of MCP-1 in LPS-stimulated human whole blood incubate for 24 hrs by immuno assay; format: tissue-based
C-C motif chemokine 2, sequence (P13500 whole entry): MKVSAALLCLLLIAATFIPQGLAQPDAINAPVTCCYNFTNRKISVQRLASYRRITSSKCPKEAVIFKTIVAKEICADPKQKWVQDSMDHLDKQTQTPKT

Cytochrome P450 3A4 = Cytochrome P450 3A4 (Homo sapiens, UniProt P08684); experiment: Inhibition of CYP3A4 (unknown origin); format: ADME
Cytochrome P450 3A4, sequence (P08684 whole entry): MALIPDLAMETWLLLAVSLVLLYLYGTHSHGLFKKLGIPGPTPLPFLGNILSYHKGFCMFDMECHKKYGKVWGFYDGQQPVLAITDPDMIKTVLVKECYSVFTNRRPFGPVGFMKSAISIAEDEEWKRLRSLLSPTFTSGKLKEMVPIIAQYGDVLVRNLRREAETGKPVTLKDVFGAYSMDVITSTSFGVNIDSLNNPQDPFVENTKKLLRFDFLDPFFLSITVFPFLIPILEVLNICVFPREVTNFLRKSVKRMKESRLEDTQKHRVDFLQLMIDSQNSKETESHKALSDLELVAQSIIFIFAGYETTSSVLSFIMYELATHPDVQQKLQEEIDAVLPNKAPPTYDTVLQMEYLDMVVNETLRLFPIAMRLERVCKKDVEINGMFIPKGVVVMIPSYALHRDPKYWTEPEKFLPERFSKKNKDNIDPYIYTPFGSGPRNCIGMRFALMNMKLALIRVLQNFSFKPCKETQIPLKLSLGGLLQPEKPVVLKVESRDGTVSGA

[9] = Solubility of the compound in saline by CLND method; format: physicochemical

Row | Papp [1] [×10⁻⁶ cm/s] | IC50 [2] [nM] | solubility at 16 h [3] [µg/mL] | IC50 [4] [nM] | CLH [5] [mL/min/g] | CLH [6] [mL/min/g] | CLH [7] [mL/min/g] | IC50 (C-C motif chemokine 2) [nM] | IC50 (Cytochrome P450 3A4) [nM] | solubility kinetic [9] [µg/mL] | SMILES | IC50 [8] [nM]
1 | 51 | 316 | 558 (≈ 1720 µM) | 794 |  |  |  |  |  |  | CC(=O)N1c2ccc(F)cc2[C@H](Nc2ccc(C#N)cn2)C[C@@H]1C | 
2 | 4.6 | 100 | > 1000 | 200 | 4.3 | < 0.87 | < 1.26 | 251 | > 39800 |  | CCNC(=O)c1ccc2c(c1)[C@H](Nc1ccc(C#N)cn1)C[C@H](C)N2C(C)=O | > 50100
3 | 25 | 158 | 44 (≈ 120 µM) | 794 |  |  |  |  |  |  | CCNC(=O)c1ccc2c(c1)[C@H](Nc1ccc(C)cn1)C[C@H](C)N2C(C)=O | 
4 | 8.2 | 158 |  | 794 |  |  |  |  |  | ≥ 143 | CC(=O)N1c2ccc(C(N)=O)cc2[C@H](Nc2ccc(C)cn2)C[C@@H]1C | 
5 | 32 | 1260 | 955 (≈ 3110 µM) | 1260 |  |  |  |  |  |  | CC(=O)N1c2ccccc2[C@H](Nc2cnc(C#N)cn2)C[C@@H]1C | 
6 | 19 | 501 | 60 (≈ 181 µM) | 501 |  |  |  |  |  |  | CC(=O)N1c2ccc(C#N)cc2[C@H](Nc2cnc(C#N)cn2)C[C@@H]1C | 
7 | 40 | 20 | 33 (≈ 92.2 µM) | 200 |  |  |  |  |  |  | CC(=O)N1c2ccc(C(N)=O)cc2[C@H](Nc2cccc(Cl)c2)C[C@@H]1C | 
8 | < 18 | 79.4 | 82 (≈ 211 µM) | 100 |  |  |  |  |  |  | CCNC(=O)c1ccc2c(c1)[C@H](Nc1ncc(Cl)cn1)C[C@H](C)N2C(C)=O | 
9 | 23 | 158 |  | 794 |  |  |  |  |  | ≥ 126 | CCNC(=O)c1ccc2c(c1)[C@H](Nc1ccc(F)cn1)C[C@H](C)N2C(C)=O | 
10 | 52 | 631 | > 1000 | 1260 |  |  |  |  |  |  | CC(=O)N1c2ccc(F)cc2[C@H](Nc2cnc(C)cn2)C[C@@H]1C | 
11 | 54 | 501 | 270 (≈ 911 µM) | 1000 |  |  |  |  |  |  | CC(=O)N1c2ccccc2[C@H](Nc2cnc(C)cn2)C[C@@H]1C | 
12 | 31 | 158 | 279 (≈ 842 µM) | 501 |  |  |  |  |  |  | CC(=O)N1c2ccc(C#N)cc2[C@H](Nc2ccc(C#N)cn2)C[C@@H]1C | 
13 | 15 | 79.4 | 884 (≈ 2460 µM) | 251 |  |  |  | 398 | > 39800 |  | CC(=O)N1c2ccc(C(N)=O)cc2[C@H](Nc2ccc(Cl)cn2)C[C@@H]1C | > 50100
14 | 48 | 316 | 533 (≈ 1740 µM) | 1000 |  |  |  |  |  |  | CC(=O)N1c2ccccc2[C@H](Nc2ccc(C#N)cn2)C[C@@H]1C | 
15 | 30 | 1000 |  | 1260 |  |  |  |  |  | 99 (≈ 304 µM) | CC(=O)N1c2ccc(F)cc2[C@H](Nc2cnc(C#N)cn2)C[C@@H]1C | 
16 | 35 | 79.4 | 90 (≈ 233 µM) | 316 |  |  |  |  |  |  | CCNC(=O)c1ccc2c(c1)[C@H](Nc1ccc(Cl)cn1)C[C@H](C)N2C(C)=O | 
17 | 0.3 | 1000 |  | 501 |  |  |  |  |  | ≥ 73 | CCNC(=O)c1ccc2c(c1)[C@H](Nc1cnc(C#N)cn1)C[C@H](C)N2C(C)=O | 
